Assay results: patent publication US20240156973A1, “OSTEOTROPIC COMPOSITIONS AND USES THEREOF” (Purdue Research Foundation, priority 2021, published 2024)

What was measured:
[1] = test system: male C57BL/6 mice with surgically induced femoral fracture; test: Surgically induced femoral fracture, X-ray and ex vivo µCT of callus; assay type: in vivo
Experimental: FIG. 14A are representative μCT images of femurs 3 weeks post-surgery from 12-week-old C57BL/6 male mice that underwent a surgically created fracture and received 3×/wk injection of targeted SRT1720 (SRT1720-Aspartic Acid Oligopeptide described herein; SQ, 6 mg/kg/dose) or vehicle control.
FIG. 14B is a bar graph showing μCT analysis of the mineralized callus volume (BV/TV) for each treatment group ([…], 2, 6, and 20 mg/kg/dose),
FIG. 14C is a bar graph showing μtCT analysis of the callus trabecular thickness (Tb.Th) within the callus region for each treatment group.
(§1) Weekly X-rays were used to examine healing progression. Prior to euthanasia, mice underwent behavioral testing to measure evoked pain behaviors, Upon euthanasia, ex vivo μCT imaging (FIGS. 14A-14C) and analysis was completed to assess fracture callus size and composition.

[2] = test system: male C57BL/6 mice with surgically induced femoral fracture; test: Von Frey testing of evoked pain behavior after femoral fracture; assay type: in vivo
Experimental: FIG. 15 is bar graphs for 12-week-old C57BL/6 male mice that underwent a surgically created fracture and received 3×/wk injection of targeted SRT1720 (SQ, 2, 6, and 20 mg/kg/dose) or vehicle control.
as §1

[3] = target: T1, Thrombopoietin Receptor (TPOR) (Homo sapiens, UniProt P40238); details: TPOR binding; cysteine-containing peptides in cyclic form; cited from earlier work
T1 sequence (P40238 26-491 limits assumed): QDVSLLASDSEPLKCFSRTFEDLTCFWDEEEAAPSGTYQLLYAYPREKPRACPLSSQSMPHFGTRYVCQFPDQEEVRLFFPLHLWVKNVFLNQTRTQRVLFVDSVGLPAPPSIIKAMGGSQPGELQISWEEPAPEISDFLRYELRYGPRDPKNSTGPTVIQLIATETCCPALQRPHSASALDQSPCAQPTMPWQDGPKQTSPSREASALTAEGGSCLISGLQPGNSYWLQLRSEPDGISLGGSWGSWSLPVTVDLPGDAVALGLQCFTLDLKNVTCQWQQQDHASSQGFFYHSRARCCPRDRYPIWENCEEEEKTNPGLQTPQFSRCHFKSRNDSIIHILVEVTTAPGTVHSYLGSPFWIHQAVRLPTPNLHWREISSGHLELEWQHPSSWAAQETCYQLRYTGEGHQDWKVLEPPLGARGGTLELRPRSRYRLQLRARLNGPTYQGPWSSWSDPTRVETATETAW

[4] = test system: female Swiss Webster mice with midshaft femur fractures; test: Midshaft femur fracture healing, micro-CT of fracture callus; assay type: in vivo; details: three weeks
Experimental: Fracture healing was assessed using micro-CT (Scanco Medical Ag or PerkinElmer). […] Morphometric parameters were quantified in an ROI that included just the fracture callus. […] Statistical analysis was performed using a one-way analysis of variance (ANOVA) and a Dunnett's post-hoc analysis with significance reported at the P value of 0.05. All animal experiments were performed in accordance with protocols approved by Purdue University's Institutional Animal Care and Use Committee (IACUC).

[5] = 6 mg/kg, 3x/week, 3 weeks, p<0.05
[6] = all doses (2, 6, 20 mg/kg, 3x/week), 3 weeks post-surgery

O=C(Nc1ccccc1-c1cn2c(CN3CCNCC3)csc2n1)c1cnc2ccccc2n1 [SRT1720]
bone healing ([1]; 6 mg/kg, 3x/week, 3 weeks): accelerated bone healing | mineralized callus volume [1, 5]: significant increase in mineralized callus volume | bone healing ([1]; all doses (2, 6, 20 mg/kg, 3x/week, 3 weeks)): improved healing | paw withdrawal thresholds (evoked responses to tactile stimulus) [2, 5]: more robust and significant improvement | paw withdrawal thresholds (evoked responses to tactile stimulus) [2, 6]: increased paw withdrawal thresholds

N[C@@H](CCC(=O)O)C(=O)N[C@@H](CCC(=O)O)C(=O)N[C@@H](CCC(=O)O)C(=O)N[C@@H](CCC(=O)O)C(=O)N[C@@H](CCC(=O)O)C(=O)N[C@@H](CCC(=O)O)C(=O)N[C@@H](CCC(=O)O)C(=O)N[C@@H](CCC(=O)O)C(=O)N[C@@H](CCC(=O)O)C(=O)N[C@@H](CCC(=O)O)C(=O)N[C@@H](CSSCCOC(=O)N1CCN(Cc2csc3nc(-c4ccccc4NC(=O)c4cnc5ccccc5n4)cn23)CC1)C(=O)O [targeted SRT1720]
paw withdrawal thresholds (evoked responses to tactile stimulus) [2, 6]: improved mN forces

GGCADGPTLREWISFCGG [AF12193]
IC50 [3]: 60 nM

GGCTLREWLHGGFCGG [AF12192]
IC50 [3]: 200 nM

GNADGPTLRQWLEGRRPKN [AF12359]
IC50 [3]: 66 nM

GRVBDQIMLSLGG [AF12191]
IC50 [3]: 20000 nM

IEGPTLRQWLAARA [AF12505]
IC50 [3]: 2 nM

IEGPTLRQWLAARA-K-β-Ala-IEGPTLRQWLAARA [AF13948]
IC50 [3]: 0.5 nM

Ile-Glu-Gly-Pro-Thr-Leu-Arg-Gln-Npa-Leu-Ala-Ala-Arg-Sar [TMP]
bone volume, dose-response shape ([4]; untargeted TMP daily 0.1, 1 and 10 nmol s.c.): parabolic dosing window | callus bone volume/total volume, dose-response shape ([4]; untargeted TMP daily 3.3, 33 and 330 nmol/kg s.c.): parabolic dosing window | dose with maximum response on callus mineralization (bone volume) ([4]; untargeted TMP daily s.c.): 1 nmol/day | dose with maximum response on callus mineralization (bone volume/total volume) ([4]; untargeted TMP daily s.c.): 33 nmol/kg

LAIEGPTLRQWLHGNGPDT [AF12434]
IC50 [3]: 20 nM

TIKGFTLRQWLKSREHTS [AF12405]
IC50 [3]: 50 nM
